Source: the NIST ThermoML archive (doi:10.1021/acs.jced.8b00589)

Assay: xn = mol fraction of the nth substance listed
Settings: for surface tension liquid-gas: Ring tensiometer; for viscosity / speed of sound / mass density: 100 kPa, Liquid; for viscosity: Capillary tube (Ostwald / Ubbelohde) method; for speed of sound: Frequency=2 MHz, Linear variable-path acoustic interferometer; for mass density: Vibrating tube method

CCC(C)(C)OC [2-methoxy-2-methylbutane] + CCCCCC
Settings | mass density [kg/m3] | speed of sound [m/s] | surface tension liquid-gas [mN/m] | viscosity [mPa·s]
298.15 K, x1 = 0.1632 | 672.8 | 1077.8 | 17.99 | 0.311
298.15 K, x1 = 0.2584 | 683.2 | 1082.2 | 18.21 | 0.318
298.15 K, x1 = 0.3742 | 695.5 | 1087.5 | 18.5 | 0.327
298.15 K, x1 = 0.4276 | 701.6 | 1088.6 | 18.62 | 0.331
298.15 K, x1 = 0.5464 | 714.8 | 1092.8 | 18.73 | 0.346
298.15 K, x1 = 0.6121 | 722.3 | 1096.1 | 18.88 | 0.356
298.15 K, x1 = 0.7457 | 737.2 | 1103.5 | 19.15 | 0.381
298.15 K, x1 = 0.8625 | 750.1 | 1112.2 | 19.42 | 0.402
298.15 K, x1 = 1 | 765.6 | 1118 | 19.72 | 0.424
308.15 K, x1 = 0.1632 | 663.2 | 1035.5 | 16.88 | 0.274
308.15 K, x1 = 0.2584 | 673.8 | 1039.4 | 17.1 | 0.281
308.15 K, x1 = 0.3742 | 686.5 | 1045.1 | 17.4 | 0.293
308.15 K, x1 = 0.4276 | 692.3 | 1046.8 | 17.52 | 0.298
308.15 K, x1 = 0.5464 | 705.2 | 1049.6 | 17.64 | 0.313
308.15 K, x1 = 0.6121 | 712.5 | 1053.2 | 17.79 | 0.322
308.15 K, x1 = 0.7457 | 727.4 | 1060.4 | 18.07 | 0.342
308.15 K, x1 = 0.8625 | 740.7 | 1069.2 | 18.35 | 0.362
308.15 K, x1 = 1 | 756.3 | 1075.6 | 18.66 | 0.39
318.15 K, x1 = 0.1632 | 653.5 | 984.7 | 15.78 | 0.249
318.15 K, x1 = 0.2584 | 663.8 | 988.75 | 16.01 | 0.256
318.15 K, x1 = 0.3742 | 676.6 | 994.36 | 16.33 | 0.266
318.15 K, x1 = 0.4276 | 682.4 | 996.61 | 16.46 | 0.271
318.15 K, x1 = 0.5464 | 695.3 | 1002.4 | 16.58 | 0.284
318.15 K, x1 = 0.6121 | 702.5 | 1006.8 | 16.74 | 0.292
318.15 K, x1 = 0.7457 | 717.7 | 1013.8 | 17.03 | 0.311
318.15 K, x1 = 0.8625 | 730.6 | 1022.8 | 17.32 | 0.331
318.15 K, x1 = 1 | 746.3 | 1030.2 | 17.65 | 0.357
323.15 K, x1 = 0.1632 | 648.6 | 963.82 | 15.22 | 0.239
323.15 K, x1 = 0.2584 | 658.8 | 967.24 | 15.47 | 0.245
323.15 K, x1 = 0.3742 | 671.5 | 971.83 | 15.78 | 0.254
323.15 K, x1 = 0.4276 | 677.3 | 973.34 | 15.92 | 0.258
323.15 K, x1 = 0.5464 | 690.4 | 977.27 | 16.04 | 0.27
323.15 K, x1 = 0.6121 | 697.6 | 980.49 | 16.2 | 0.277
323.15 K, x1 = 0.7457 | 712.5 | 984.8 | 16.5 | 0.294
323.15 K, x1 = 0.8625 | 725.8 | 994.84 | 16.8 | 0.312
323.15 K, x1 = 1 | 741.4 | 1003 | 17.13 | 0.335
328.15 K, x1 = 0.1632 | 643.6 | 942.3 | 14.67 | 0.23
328.15 K, x1 = 0.2584 | 653.7 | 945.14 | 14.92 | 0.235
328.15 K, x1 = 0.3742 | 666.5 | 949.52 | 15.24 | 0.244
328.15 K, x1 = 0.4276 | 672.3 | 951.24 | 15.38 | 0.248
328.15 K, x1 = 0.5464 | 685.3 | 955.05 | 15.5 | 0.259
328.15 K, x1 = 0.6121 | 692.6 | 958.72 | 15.67 | 0.266
328.15 K, x1 = 0.7457 | 707.5 | 963.63 | 15.97 | 0.283
328.15 K, x1 = 0.8625 | 720.8 | 974.08 | 16.27 | 0.301
328.15 K, x1 = 1 | 736.5 | 985.22 | 16.62 | 0.323

CCC(C)(C)OC [2-methoxy-2-methylbutane] + Cc1cccc(C)c1
Settings | mass density [kg/m3] | speed of sound [m/s] | surface tension liquid-gas [mN/m] | viscosity [mPa·s]
298.15 K, x1 = 0.1462 | 844.1 | 1299 | 26.87 | 0.561
298.15 K, x1 = 0.2667 | 833.4 | 1269.4 | 25.84 | 0.541
298.15 K, x1 = 0.4165 | 821.1 | 1235 | 24.69 | 0.519
298.15 K, x1 = 0.4774 | 816.2 | 1218.9 | 24.24 | 0.51
298.15 K, x1 = 0.5331 | 811.4 | 1205.2 | 23.82 | 0.502
298.15 K, x1 = 0.6068 | 805.3 | 1189.2 | 23.22 | 0.491
298.15 K, x1 = 0.7371 | 794.6 | 1165.8 | 22.07 | 0.47
298.15 K, x1 = 0.8642 | 782.7 | 1138 | 20.93 | 0.447
298.15 K, x1 = 1 | 765.6 | 1118 | 19.72 | 0.424
308.15 K, x1 = 0.1462 | 833.6 | 1254.4 | 25.64 | 0.501
308.15 K, x1 = 0.2667 | 822.5 | 1220.7 | 24.62 | 0.485
308.15 K, x1 = 0.4165 | 810.2 | 1182.3 | 23.47 | 0.468
308.15 K, x1 = 0.4774 | 805.1 | 1167 | 23.02 | 0.461
308.15 K, x1 = 0.5331 | 800.3 | 1155.1 | 22.61 | 0.454
308.15 K, x1 = 0.6068 | 794.4 | 1140.5 | 22.06 | 0.445
308.15 K, x1 = 0.7371 | 783.3 | 1118.1 | 20.94 | 0.428
308.15 K, x1 = 0.8642 | 771.8 | 1092.8 | 19.83 | 0.409
308.15 K, x1 = 1 | 756.3 | 1075.6 | 18.66 | 0.39
318.15 K, x1 = 0.1462 | 823.8 | 1209.3 | 24.36 | 0.46
318.15 K, x1 = 0.2667 | 813.1 | 1174.2 | 23.37 | 0.445
318.15 K, x1 = 0.4165 | 800.2 | 1134.5 | 22.25 | 0.428
318.15 K, x1 = 0.4774 | 794.8 | 1118.7 | 21.81 | 0.421
318.15 K, x1 = 0.5331 | 790.4 | 1105.4 | 21.41 | 0.415
318.15 K, x1 = 0.6068 | 784.1 | 1090.6 | 20.9 | 0.407
318.15 K, x1 = 0.7371 | 772.8 | 1067.2 | 19.83 | 0.391
318.15 K, x1 = 0.8642 | 761.3 | 1045.9 | 18.77 | 0.374
318.15 K, x1 = 1 | 746.3 | 1030.2 | 17.65 | 0.357
323.15 K, x1 = 0.1462 | 819.2 | 1186.3 | 23.73 | 0.424
323.15 K, x1 = 0.2667 | 808 | 1150.5 | 22.75 | 0.412
323.15 K, x1 = 0.4165 | 795.3 | 1107.7 | 21.65 | 0.399
323.15 K, x1 = 0.4774 | 789.8 | 1090.3 | 21.21 | 0.393
323.15 K, x1 = 0.5331 | 785.1 | 1076.2 | 20.82 | 0.389
323.15 K, x1 = 0.6068 | 778.8 | 1061.4 | 20.32 | 0.382
323.15 K, x1 = 0.7371 | 767.7 | 1037.8 | 19.27 | 0.369
323.15 K, x1 = 0.8642 | 755.8 | 1017 | 18.23 | 0.354
323.15 K, x1 = 1 | 741.4 | 1003 | 17.13 | 0.34
328.15 K, x1 = 0.1462 | 814.4 | 1160.6 | 23.1 | 0.414
328.15 K, x1 = 0.2667 | 803.3 | 1124 | 22.14 | 0.401
328.15 K, x1 = 0.4165 | 790.5 | 1082.2 | 21.05 | 0.387
328.15 K, x1 = 0.4774 | 785.2 | 1065.1 | 20.62 | 0.382
328.15 K, x1 = 0.5331 | 780.3 | 1051.8 | 20.23 | 0.377
328.15 K, x1 = 0.6068 | 773.7 | 1037.4 | 19.73 | 0.37
328.15 K, x1 = 0.7371 | 762.6 | 1013.9 | 18.71 | 0.357
328.15 K, x1 = 0.8642 | 750.8 | 995.44 | 17.69 | 0.342
328.15 K, x1 = 1 | 736.5 | 985.2 | 16.62 | 0.328
